Measured values reported in US20110178299A1, “OPTICALLY ACTIVE DIFLUOROMETHANESULFONANILIDE DERIVATIVE AND HERBICIDE” (Kumiai Chemical Industry Co., Ltd., priority 2008, published 2011).

What was measured:
Assay in all cases: Paddy pot test of herbicidal effect, water surface application of wettable powder
Type in all cases: in vivo
Conditions in all cases: applied onto water surface 3 days after sowing, examined after 30 days
[1] = tested on: Scirpus juncoides Roxb.
Protocol: (§1) A paddy field soil was filled in a plastic pot having an area of 1/5000 are. Beginning of irrigation, fertilizer application and puddling were conducted. Then, seeds of Echinochloa oryzicola Vasing, Monochoria vaginalis Presl var. plan-taginea (Roxb.) Solms-Lau. and Scirpus juncoides Roxb. were sowed at a depth of 0.5 cm, and submerging was conducted so as to give a water depth of 4 cm. 3 days after the sowing, the wettable powder prepared as in the formulation 1 was diluted with water and dropwise added onto the water surface so that the active ingredient amount (g/10 are) added became the level shown in Table 2. Then, breeding was made at room temperature and, after 30 days, herbicidal effect was examined according to the yardstick shown in Table 1.

[2] = tested on: Monochoria vaginalis Presl var. plan-taginea (Roxb.) Solms-Lau.
Protocol: as §1

[3] = tested on: Echinochloa oryzicola Vasing
Protocol: as §1

SMILES	Herbicidal effect (degree of growth control) index, Scirpus juncoides ([1]; dose 0.32 g ai/10 a)	Herbicidal effect (degree of growth control) index, Monochoria vaginalis ([2]; dose 0.32 g ai/10 a)	Herbicidal effect (degree of growth control) index, Echinochloa oryzicola ([3]; dose 0.32 g ai/10 a)	Herbicidal effect (degree of growth control) index, Scirpus juncoides ([1]; dose 0.04 g ai/10 a)	Herbicidal effect (degree of growth control) index, Scirpus juncoides ([1]; dose 0.08 g ai/10 a)	Herbicidal effect (degree of growth control) index, Scirpus juncoides ([1]; dose 0.16 g ai/10 a)	Herbicidal effect (degree of growth control) index, Monochoria vaginalis ([2]; dose 0.04 g ai/10 a)	Herbicidal effect (degree of growth control) index, Monochoria vaginalis ([2]; dose 0.08 g ai/10 a)	Herbicidal effect (degree of growth control) index, Monochoria vaginalis ([2]; dose 0.16 g ai/10 a)	Herbicidal effect (degree of growth control) index, Echinochloa oryzicola ([3]; dose 0.04 g ai/10 a)	Herbicidal effect (degree of growth control) index, Echinochloa oryzicola ([3]; dose 0.08 g ai/10 a)	Herbicidal effect (degree of growth control) index, Echinochloa oryzicola ([3]; dose 0.16 g ai/10 a)
COCc1cccc([C@H](O)c2nc(OC)cc(OC)n2)c1NS(=O)(=O)C(F)F [compound 3, (S)-2′-(4,6-dimethoxypyrimidin-2-yl)hydroxyl-methyl-6′-methoxymethyl-1,1-difluoromethanesulfonanilide]	0 (Herbicidal effect of less than 10%)	0 (Herbicidal effect of less than 10%)	0 (Herbicidal effect of less than 10%)									
COCc1cccc(C(O)c2nc(OC)cc(OC)n2)c1NS(=O)(=O)C(F)F (racemic) [compound 2, (RS)-2′-(4,6-dimethoxypyrimidin-2-yl)hydroxymethyl-6′-methoxymethyl-1,1-difluoromethanesulfonanilide, reference compound]	10 (Herbicidal effect of 100% control)	10 (Herbicidal effect of 100% control)	7 (Herbicidal effect of 70% inclusive to 80% exclusive)	2 (Herbicidal effect of 20% inclusive to 30% exclusive)	8 (Herbicidal effect of 80% inclusive to 90% exclusive)	9 (Herbicidal effect of 90 inclusive to 100% exclusive)	0 (Herbicidal effect of less than 10%)	0 (Herbicidal effect of less than 10%)	9 (Herbicidal effect of 90 inclusive to 100% exclusive)	1 (Herbicidal effect of 10% inclusive to 20% exclusive)	3 (Herbicidal effect of 30% inclusive to 40% exclusive)	5 (Herbicidal effect of 50% inclusive to 60% exclusive)
COCc1cccc([C@@H](O)c2nc(OC)cc(OC)n2)c1NS(=O)(=O)C(F)F [compound 1, (R)-2′-(4,6-dimethoxypyrimidin-2-yl)hydroxymethyl-6′-methoxymethyl-1,1-difluoromethanesulfonanilide]	10 (Herbicidal effect of 100% control)	10 (Herbicidal effect of 100% control)	9 (Herbicidal effect of 90 inclusive to 100% exclusive)	7 (Herbicidal effect of 70% inclusive to 80% exclusive)	9 (Herbicidal effect of 90 inclusive to 100% exclusive)	10 (Herbicidal effect of 100% control)	0 (Herbicidal effect of less than 10%)	9 (Herbicidal effect of 90 inclusive to 100% exclusive)	10 (Herbicidal effect of 100% control)	1 (Herbicidal effect of 10% inclusive to 20% exclusive)	6 (Herbicidal effect of 60% inclusive to 70% exclusive)	9 (Herbicidal effect of 90 inclusive to 100% exclusive)
